Active and inactive are the calls of the source. How the calls were made is not given here.

In this assay the target is Ubiquitin-conjugating enzyme E2 N (Homo sapiens) (UniProt P61088). Briefly: NMR detection of UBE2N ligand binding – biophysical, purified protein (AID 1552). To be noted: NMR binding to purified UBE2N.
Ubiquitin-conjugating enzyme E2 N (Homo sapiens), sequence (P61088 whole entry, looked up): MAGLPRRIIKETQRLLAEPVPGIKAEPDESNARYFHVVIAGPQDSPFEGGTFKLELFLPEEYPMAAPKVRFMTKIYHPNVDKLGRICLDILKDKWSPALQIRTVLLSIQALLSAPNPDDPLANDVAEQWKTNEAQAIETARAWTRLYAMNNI
Consider `COc1cccc(C(=O)N2CCOCC2)c1`, for which the Kd is > 4 mM (inactive).
In the case of `NC1=NC(=O)C(Cc2ccccc2)S1` (stereo not drawn), the Kd is > 4 mM (inactive).
Next, `NC(=O)CSc1nc2ccccc2o1`: > 4 mM (inactive).
Next, `COc1ccc(C(N)=O)cc1N`: > 4 mM (inactive).
With `CSc1ccccc1NC(=O)c1cccnc1` the figure was > 4 mM (inactive); with `C[C@@H]1CC[C@H]2[C@@H](C)C(=O)O[C@@H]3OC4(C)CC[C@@H]1[C@]32OO4`, > 4 mM (inactive); with `O=C(COc1ccccc1Cl)N1CCCC1`, > 4 mM (inactive).
Consider `CCCn1c(C)cc(=O)[nH]c1=O`, for which the Kd is > 4 mM (inactive).
Take `CCN1CCc2c(sc(N)c2C#N)C1`: the Kd was > 4 mM (inactive).
For `COc1cccc(O)c1O`, the Kd was > 4 mM (inactive).
With `NC(=O)C1CCN(c2ccc(Cl)nn2)CC1` the figure was > 4 mM (inactive); with `O=C(c1ccc(Cl)s1)N1CCOCC1`, > 4 mM (inactive); with `CC1(C)Cn2c(nnc2-c2ccccc2)S1`, > 4 mM (inactive).
With `O=S1(=O)CCC(NC(=S)Nc2ccccc2)C1` (stereo not drawn) the figure was > 4 mM (inactive); with `NS(=O)(=O)c1ccc2c3c(cccc13)C(=O)N2`, > 4 mM (inactive); with `COc1cc(C(C)=O)ccc1OC(=O)N1CCOCC1`, > 4 mM (inactive).
Take `Cc1scc(C(=O)Nc2ccon2)c1-c1ccccc1`: the Kd is > 4 mM (inactive).
With `Cc1cc2cc(N)ccc2[nH]1` the figure was > 4 mM (inactive); with `O=C(O)c1ccnc2ccccc12`, > 4 mM (inactive).
Regarding `Nc1ncnc(NCCOCCO)c1[N+](=O)[O-]`, the Kd was > 4 mM (inactive).
Turning to `Cc1noc(C)c1C(=O)NCc1cccs1`, the Kd is > 4 mM (inactive).
With `O=C1NC(=S)NC(=O)C1=Cc1ccco1`, the Kd was > 4 mM (inactive).
With `O=C1C=C(Nc2ccc(O)cc2)c2ccccc2C1=O` the figure was > 4 mM (inactive).
Turning to `N#Cc1cn(CC(=O)N2CCCC2)c2ccccc12`, the Kd is > 4 mM (inactive).
Take `CC(C)NS(=O)(=O)c1ccc(N)cc1`: the Kd was > 4 mM (inactive).
Next, `Cc1nc(NC(=O)c2cccnc2)ccc1Br`: > 4 mM (inactive); `Cn1nc(-c2cccs2)cc1N`: > 4 mM (inactive).
On to `COc1cc(-c2nnc(NC(C)=O)o2)cc(OC)c1OC`, for which the Kd is > 4 mM (inactive).
Take `CC(=O)NC(=S)Nc1ccccc1C(N)=O`: the Kd was > 4 mM (inactive).
With `CCOC(=O)CNc1ncnc2c1nnn2CC`, the Kd is > 4 mM (inactive).
Next, `COc1ccc2nc(N)sc2c1`: > 4 mM (inactive).
With `CCCCCCCCCCCCCCC(C(=O)O)C(O)(CC(=O)OC)C(=O)O` (stereo not drawn) the figure was > 4 mM (inactive); with `Cc1c(C(=O)OC(C)C)[nH]c2c1C(=O)CCC2`, > 4 mM (inactive); with `COc1ccccc1C(=O)NC1CCN(C)CC1`, > 4 mM (inactive).
Next, `CC1CCC2(OC1)OC1CC3C4CCC5C[C@@H](O)CCC5(C)C4=CCC3(C)C1[C@@H]2C` (stereo partly drawn): > 4 mM (inactive); `COc1ccc2c(c1)O[C@@H]1COc3cc(OC)c(OC)cc3[C@@H]1C2=O`: > 4 mM (inactive); `O=c1[nH]nnc2sc3c(c12)CCCC3`: > 4 mM (inactive).
In the case of `Cc1c(-c2ccccc2)[n+](=O)c(-c2ccco2)c(C)n1[O-]`, the Kd was > 4 mM (inactive).
As to `O=C(NCc1n[nH]c(=O)c2ccccc12)C1CC1`, the Kd is > 4 mM (inactive).
Next, `Cc1ccnc(NS(=O)(=O)c2ccccc2)n1`: > 4 mM (inactive).
Next, `CC(C)CCCC(C)[C@H]1CCC2C3CC=C4CC(=O)CC[C@]4(C)C3CC[C@@]21C` (stereo partly drawn): > 4 mM (inactive); `COC(=O)c1c(OC)cc2c(c1C)Oc1c(Cl)c(O)c(Cl)c(C)c1C(=O)O2`: > 4 mM (inactive); `C[C@H]1C(=O)CCC2[C@]3(C)CC[C@@]4(C)C5CC(C)(C)CC[C@]5(C)CC[C@]4(C)C3CC[C@@]21C` (stereo partly drawn): > 4 mM (inactive).
For the molecule `O=C1C=CC(=O)c2c(O)cccc21`, the Kd was > 4 mM (inactive).
Regarding `CN1CCC(N2CCCC(C(N)=O)C2)CC1` (stereo not drawn), the Kd is > 4 mM (inactive).
`Nc1ccc(C2SCCS2)cc1`: the Kd was > 4 mM (inactive).
In the case of `CC(=O)OC1CCC2(C)C3CC(=O)C4(C)C(CC5OC6(CCC(C)CO6)[C@@H](C)C54)C3CC[C@H]2C1` (stereo partly drawn), the Kd was > 4 mM (inactive).
With `Cc1cc2c(nn1)CCc1nonc1-2`, the Kd was > 4 mM (inactive).
Next, `CCNC(=S)NS(=O)(=O)c1ccccc1`: > 4 mM (inactive); `O=C1c2ccccc2-c2ncnc3cccc1c23`: > 4 mM (inactive).
As for `O=C(O)CCc1c[nH]c2ccccc12`, the Kd was > 4 mM (inactive).
With `CC1=C(C(=O)Nc2ccccc2)SCCO1` the figure was > 4 mM (inactive).
Next, `O=C(Nc1ccc(Cl)cn1)c1cnn2cccnc12`: > 4 mM (inactive); `O=C(CCc1ccc(O)cc1)c1c(O)cc(O)cc1O[C@@H]1O[C@H](CO)[C@@H](O)[C@H](O)[C@H]1O`: > 4 mM (inactive).
With `O=C(CN1C(=O)c2cccc3cccc(c23)C1=O)NO`, the Kd is > 4 mM (inactive).
With `OCC1=Cc2ccccc2OC1` the figure was > 4 mM (inactive).
With `CC(=O)N1CCN(S(=O)(=O)c2ccccc2)CC1`, the Kd was > 4 mM (inactive).
With `CC1=NCCc2c1[nH]c1cc(O)ccc21` the figure was > 4 mM (inactive); with `COC(=O)C[C@@H]1C2(C)C(=O)[C@@H](CC3=C4CC(O)O[C@@H](c5ccoc5)[C@]4(C)CCC32)[C@H](O)C1(C)C` (stereo partly drawn), > 4 mM (inactive).
Turning to `Cc1cc(C(=O)Nc2sc(C)c(C)c2C#N)c(C)o1`, the Kd is > 4 mM (inactive).
For `CCOC(=O)Cn1cnc2sc3c(c2c1=O)CCC3`, the Kd was > 4 mM (inactive).
Turning to `O=c1ccn([C@@H]2O[C@H](COP(=O)(O)OP(=O)(O)OP(=O)(O)O)[C@@H](O)[C@H]2O)c(=O)[nH]1`, the Kd was > 4 mM (inactive).
Next, `CS(=O)(=O)CCCCN=C=S`: > 4 mM (inactive); `Cn1c(-c2ccccc2F)n[nH]c1=S`: > 4 mM (inactive).
For the molecule `N=Nc1c(O)[nH]c2ccccc12`, the Kd is > 4 mM (inactive).
Next, `CC1(C)C(=O)[C@@H]2O[C@@H]2[C@@]2(C)C1C[C@@H](O)[C@]1(C)C2CC[C@@]2(C)[C@H](c3ccoc3)OC(=O)C3OC321` (stereo partly drawn): > 4 mM (inactive); `O=C1CC(=O)N2N=C(c3ccccc3)SC2=N1`: > 4 mM (inactive); `O=C1C[C@@H](c2ccc(O)cc2)Oc2cc(O)cc(O)c21`: > 4 mM (inactive).
As for `Cc1cc2ncc(C(=O)Nc3ccccc3)c(C)n2n1`, the Kd is > 4 mM (inactive).
Next, `CCOC(=O)c1ccc2c(c1)nnn2C`: > 4 mM (inactive); `O=C(O)c1ccc(-c2cccs2)cc1`: > 4 mM (inactive).
With `CS(=O)(=O)N1CCN(C(=O)c2ccccc2)C1` the figure was > 4 mM (inactive); with `NCCc1cnc[nH]1`, > 4 mM (inactive).
Next, `CC(=O)Nc1ccncc1NC(C)=O`: > 4 mM (inactive); `O=C(O)c1ccc(Nc2nncc(=O)[nH]2)cc1`: > 4 mM (inactive).
Regarding `CCNCC(O)c1ccc([N+](=O)[O-])cc1` (stereo not drawn), the Kd is > 4 mM (inactive).
For `Cc1cc(C)c(-c2cc(C(F)(F)F)no2)c(=O)[nH]1`, the Kd was > 4 mM (inactive).
Next, `Nc1c(N2CCCC2)cnn(-c2ccccc2)c1=O`: > 4 mM (inactive); `COCc1cc(=O)oc2cc(O)c(Cl)cc12`: > 4 mM (inactive).
Next, `Oc1ccccc1N1CCCC1`: > 4 mM (inactive); `Cc1cc(=O)c2c(O)cc(O)c(C)c2o1`: > 4 mM (inactive).
As for `Cc1ccccc1-n1c(N)cc(=O)[nH]c1=S`, the Kd was > 4 mM (inactive).
With `Cc1ccc(CN2CCN(C(=O)C3CCC3)CC2)cc1` the figure was > 4 mM (inactive); with `Nc1c(S(=O)(=O)c2ccccc2)csc1C(=O)O`, > 4 mM (inactive).
Next, `NC1=NC(=O)/C(=C/c2ccc(O)c(Cl)c2)S1`: > 4 mM (inactive); `Cc1cc(C)c(NC(=O)CN2CCC(O)CC2)c(C)c1`: > 4 mM (inactive); `Cc1nc2ccccc2c(=O)[nH]1`: > 4 mM (inactive).
Turning to `CN(c1ccc(C(=O)N2CCCCC2)cc1)S(C)(=O)=O`, the Kd is > 4 mM (inactive).
As to `CCn1cnc(C(=O)NC)c1C(=O)NC`, the Kd was > 4 mM (inactive).
`CN(C)S(=O)(=O)c1ccc(N2CCOCC2)nc1`: the Kd was > 4 mM (inactive).
Regarding `NS(=O)(=O)c1ccc(NC(=O)C(F)(F)F)cc1`, the Kd was > 4 mM (inactive).
Next, `COc1ccc(-c2oc3ccccc3c(=O)c2O)cc1OC`: > 4 mM (inactive).
Regarding `O=C(Cn1cnc2ccccc2c1=O)N1CCOCC1`, the Kd is > 4 mM (inactive).
As to `CNC(C)[C@H](O)c1ccccc1` (stereo partly drawn), the Kd is > 4 mM (inactive).
With `Cn1nc(C(=O)NC2CCCCC2)c2ccccc2c1=O`, the Kd is > 4 mM (inactive).
For the molecule `CCNC(CC(=O)Nc1ccc(O)cc1)C(=O)O` (stereo not drawn), the Kd is > 4 mM (inactive).
With `CCCCCCCCCCCCCc1ccco1` the figure was > 4 mM (inactive).
Consider `CC(C)(C)Cc1nc(-c2ccccn2)no1`, for which the Kd is > 4 mM (inactive).
As to `NC(=O)CCN1C(=O)c2ccccc2C1=O`, the Kd is > 4 mM (inactive).
With `C=CCNC(=O)c1nn2cccnc2c1Cl` the figure was > 4 mM (inactive); with `Cc1cc(OC(=O)c2c(C)cc(O)cc2O)cc(O)c1C(=O)O`, > 4 mM (inactive); with `COc1ccc([C@@H](C)C(=O)c2ccc(O)cc2O)cc1`, > 4 mM (inactive).
With `Cn1nnc2cc(C(=O)NCc3ccco3)ccc21` the figure was > 4 mM (inactive).

The term Kd denotes the equilibrium constant for the complex coming apart.

(Values after PubChem BioAssay AID1552 (Sanford-Burnham Center for Chemical Genomics, 2009).)
